# Test results as given in US5686424A, “2-oxoethyl derivatives as immunosuppressants” (Miles Inc., priority 1995, dated 1997).
# Counter-ions that a name gives are not always drawn.
# Columns and labels:
# FKBP = FKBP (Homo sapiens, UniProt P62942); assay: PPIase Inhibition Assay; type: biochemical; conditions: concentration of inhibitor required for 50% inhibition of enzyme activity; FKBP, substrate Succinyl-Ala-Phe-Pro-Phe-para-nitroanilide; TABLE I
# Procedure, shortened: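 Rates from p-nitroaniline release at 390 nm over 90 sec, fitted first-order, were converted to % activity remaining relative to uncatalyzed and uninhibited rates, with IC50 from linear regression of V-/V+ against inhibitor level. FKBP acted on Suc-Ala-Phe-Pro-Phe-pNA with excess chymotrypsin, HEPES pH 7.8, cold buffer.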
# human T-cells = assay: Suppression of Human T-Cell Proliferation Assay (PHA-stimulated, [3H]-thymidine incorporation); type: cell-based; conditions: concentration inhibiting [3H]-thymidine incorporation of PHA-stimulated T-cells by 50%, 72 hours; TABLE 2; read-out: IC50
# Procedure, shortened: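 Read-out is scintillation counting of [3H]-thymidine pulsed for the last 6 h of a 72 h, 37° C culture. Human T-cells, isolated from LeukoPaks by Lymphoprep and sheep-erythrocyte rosetting, were PHA-M activated (40 μg/ml stock) with compound dilutions added in duplicate wells.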
# NF-AT = NF-AT Inhibition Assay Directed β-Galactosidase Expression in FGL-5 cells; type: cell-based; conditions: 50% inhibition of NF-AT directed β-galactosidase activity in FGL-5 cells stimulated with phorbol dibutyrate and ionomycin; TABLE 3
# Method: 3) NF-AT Assay Stimulation of T-cells leads to the appearance of several transcription factors, including one designated "NF-AT". These factors are involved in regulation of gene expression required for immunologic activation. Some of these transcription factors appear to have functions in a wide variety of cell types. By contrast, NF-AT is found primarily in T-cells and its role is restricted to early gene activation. […] Inhibition of NF-AT activity is measured using FGL-5 cells. FGL-5 is a cloned line of stably transfected Jurkat T-cells that contain two construct in which three tandem copies of the NF-AT DNA binding site direct transcription of both murine CD8 and the lacZ gene, encoding β-galactosidase ([…] et al., 1990, Genes & Development 4:1823). When these cells are stimulated with phorbol esters which activate protein kinase C and calcium ionophore to raise the intracellular calcium concentration, transcriptionally active NF-AT is produced. In T-cells, this normally leads to the expression of IL-2, T-cell growth factor. However, in FGL-5 cells NF-AT activation leads to the production of β-galactosidase which can be detected using an appropriate substrate. […] NF-AT Inhibition Assay Directed β-Galactosidase Expression This assay was performed essentially as described (Bierer et al., 1990, Proc. Natl. Acad. Sci. 87:9231). […] The assays were done with exponentially growing cells whose density was not greater than 0.5 million cells/ml. The cells were resuspended to 3 million cells/ml in medium and 0.1 ml was added to wells of a 96-well plate. The compounds of the present invention were dissolved in either ethanol or dimethylsulfoxide at 10 mM and […] of various dilutions in medium were added to cells in duplicate wells. Treatment controls consisted of duplicate wells containing 0.5 ml/well of either medium, ethanol or dimethylsulfoxide. The ethanol and dimethyl sulfoxide were at the same concentration as was used for the compounds. […] Phorbol dibutyrate (Sigma) and Ionomycin (Calbiochem) were dissolved at 50 μg/ml and 2 mM, respectively and stored at -70° C. […] For unstimulated cell controls, 0.5 ml/well of medium was added to duplicate wells. The plates were incubated overnight (16-18 hours) at 37° C. in a humidified atmosphere of 5% CO2 and air. β-galactosidase activity was measured as the fluorescence generated by the cleavage of 4-methyl umbelliferyl-β-D-galactoside (Sigma) at the β-galactoside bond. After overnight incubation, the cells were centrifuged at 500×g for 3 minutes in the 96-well plates and washed 3 times with PBS. […] The percent inhibition by each concentration of the compounds was calculated as: […]
# FKBP, sequence (P62942 whole entry): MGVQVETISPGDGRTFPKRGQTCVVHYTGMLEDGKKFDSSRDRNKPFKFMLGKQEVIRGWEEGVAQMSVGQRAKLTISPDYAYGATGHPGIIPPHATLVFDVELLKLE
IC50 (FKBP) [µM],IC50 (NF-AT) [µM],Compound,IC50 (human T-cells) [µM]
0.1,17,"CC[C@H](C)[C@H](NC(=O)[C@@H]1CCCN1CC(=O)C12CC3CC(CC(C3)C1)C2)C(=O)N[C@@H](C)c1ccccc1 [Example 65, L-Isoleucine, N-[1-(2-Adamantan-1-yl-2-Oxoethyl)-L-Prolyl] alpha-(S)-methylbenzylamide]",8
0.71,> 100,"CC[C@H](C)[C@H](NC(=O)[C@@H]1CCCN1CC(=O)C12CC3CC(CC(C3)C1)C2)C(=O)NCc1ccncc1 [Example 67, L-Isoleucine, N-[1-(2-Adamantan-1-yl-2-Oxoethyl)-L-Prolyl] Pyridin-4-ylmethylamide]",19
0.4,60,"CC[C@H](C)[C@H](NC(=O)[C@@H]1CCCN1CC(=O)C12CC3CC(CC(C3)C1)C2)C(=O)NCc1ccccn1 [Example 68, L-Isoleucine, N-[1-(2-Adamantan-1-yl-2-Oxoethyl)-L-Prolyl] Pyridin-2-ylmethylamide]",16
0.2,16,"CC[C@H](C)[C@H](NC(=O)[C@@H]1CCCN1CC(=O)C12CC3CC(CC(C3)C1)C2)C(=O)NCc1ccc(OC)cc1 [Example 69, L-Isoleucine, N-[1-(2-Adamantan-1-yl-2-Oxoethyl)-L-Prolyl] 4-methoxybenzylamide]",8
0.64,16,"CC[C@H](C)[C@H](NC(=O)[C@@H]1CCCN1CC(=O)C12CC3CC(CC(C3)C1)C2)C(=O)NCc1ccccc1OC [Example 70, L-Isoleucine, N-[1-(2-Adamantan-1-yl-2-Oxoethyl)-L-Prolyl] 2-methoxybenzylamide]",7
> 5,12,"CC[C@H](C)[C@H](NC(=O)[C@@H]1CCCN1CC(=O)OCC=C(C)CCC=C(C)CCC=C(C)C)C(=O)NCc1ccccc1 [Example 83, L-Isoleucine, N-[1-(2-[1-(3,7,11-Trimethyldodeca-2,6,10-trien-1-ol)]-2-Oxoethyl)-L-Proline] Benzylamide]",7
3.2,> 100,"CC[C@H](C)[C@H](NC(=O)[C@@H]1CCCN1CC(=O)OCC=Cc1ccccc1)C(=O)NCc1ccccc1 [Example 84, L-Isoleucine, N-[1-(2-(3-Phenyl-2-Propen-1-Oxy)-2-Oxoethyl)-L-Prolyl] Benzylamide]",> 100
< 5,13,"CC[C@H](C)[C@H](NC(=O)[C@@H]1CCCN1CC(=O)OCC=C(C)c1ccccc1)C(=O)NCc1ccccc1 [Example 85, L-Isoleucine, N-[1-(2-(3-Phenyl-3-Methyl-2-Propen-1-Oxy)-2-Oxoethyl)-L-Prolyl] Benzylamide]",22
0.88,13,"CCC(OC(=O)CN1CCC[C@H]1C(=O)N[C@H](C(=O)NCc1ccccc1)[C@@H](C)CC)c1ccccc1 (stereo partly drawn) [Example 86, L-Isoleucine, N-[1-(2-(1-Phenylpropoxy)-2-Oxoethyl)-L-Prolyl] Benzylamide]",22
> 5,6,"CC[C@H](C)[C@H](NC(=O)[C@@H]1CCCN1CC(=O)OCC1(c2ccccc2)CCCCC1)C(=O)NCc1ccccc1 [Example 87, L-Isoleucine, N-[1-(2-(1-Phenyl-1-Cyclohexylmethoxy)-2-Oxoethyl)-L-Prolyl] Benzylamide]",8
< 5,13,"CC[C@H](C)[C@H](NC(=O)[C@@H]1CCCN1CC(=O)OC(CN1CCOCC1)c1ccccc1)C(=O)NCc1ccccc1 (stereo partly drawn) [Example 88, L-Isoleucine, N-[1-(2-(1-Phenyl-2-(4-Morpholino)Ethoxy)-2-Oxoethyl)-L-Prolyl] Benzylamide]",16
0.12,5,"CC[C@H](C)[C@H](NC(=O)[C@@H]1CCCN1CC(=O)OC1(C)C2CC3CC(C2)CC1C3)C(=O)NCc1ccccc1 (stereo partly drawn) [Example 89, L-Isoleucine, N-[1-(2-(2-Oxy-2-Methyladamant-2-yl)-2-Oxoethyl)-L-Prolyl] Benzylamide]",8
< 5,26,"CC[C@H](C)[C@H](NC(=O)[C@@H]1CCCN1CC(=O)NCC12CC3CC(CC(C3)C1)C2)C(=O)NCc1ccccc1 [Example 91, L-Isoleucine, N-[1-(Adamant-1-ylmethylcarbamoylmethyl)-L-Prolyl] Benzylamide]",4
< 5,24,"CC[C@H](C)[C@H](NC(=O)[C@@H]1CCCN1CC(=O)C1CCC(C(C)(C)C)CC1)C(=O)NCc1ccccc1 (stereo partly drawn) [Example 96, L-Isoleucine, N-[1-(2-(4-tert-Butylcyclohexyl)-2-Oxoethyl)-L-Prolyl] Benzylamide]",8
< 5,32,CC[C@H](C)[C@H](NC(=O)[C@@H]1CCCN1CC(=O)C1CC2CCC1C2)C(=O)NCc1ccccc1 (stereo partly drawn) [Example 97],12
< 5,> 33,"CC[C@H](C)[C@H](NC(=O)[C@@H]1CCCN1CC(=O)c1cc(OC)c(OC)c(OC)c1)C(=O)NCc1ccccc1 [Example 98, L-Isoleucine, N-[1-(2-(3,4,5-Trimethoxyphenyl)-2-Oxoethyl)-L-Prolyl] Benzylamide]",7
5,> 15,"CC[C@H](C)[C@H](NC(=O)[C@@H]1CCCN1CC(=O)C1CCc2ccccc2O1)C(=O)NCc1ccccc1 (stereo partly drawn) [Example 99, L-Isoleucine, N-[1-(2-(Chroman-2-yl)-2-Oxoethyl)-L-Prolyl] Benzylamide Hydrochloride Salt]",> 15
> 5,> 15,"CC[C@H](C)[C@H](NC(=O)[C@@H]1CCCN1CC(=O)c1cc2ccccc2o1)C(=O)NCc1ccccc1 [Example 100, L-Isoleucine, N-[1-(2-(Benzofuran-2-yl)-2-Oxoethyl)-L-Prolyl] Benzylamide Hydrochloride Salt]",> 15
< 5,> 15,"CC[C@H](C)[C@H](NC(=O)[C@@H]1CCCN1CC(=O)c1cccc(OC(=O)c2ccccc2)c1)C(=O)NCc1ccccc1 [Example 101, L-Isoleucine, N-[1-(2-(3-Benzoyloxyphenyl)-2-Oxoethyl)-L-Prolyl] Benzylamide]",> 15
5,> 15,"CC[C@H](C)[C@H](NC(=O)[C@@H]1CCCN1CC(=O)c1ccc(OC(=O)c2ccccc2)cc1)C(=O)NCc1ccccc1 [Example 102, L-Isoleucine, N-[1-(2-(4-Benzoyloxyphenyl)-2-Oxoethyl)-L-Prolyl] Benzylamide]",> 15
< 5,> 15,"CC[C@H](C)[C@H](NC(=O)[C@@H]1CCCN1CC(=O)c1ccccc1OC(=O)c1ccccc1)C(=O)NCc1ccccc1 [Example 103, L-Isoleucine, N-[1-(2-(2-Benzoyloxyphenyl)-2-Oxoethyl)-L-Prolyl] Benzylamide]",> 15
< 5,> 15,"CC[C@H](C)[C@H](NC(=O)[C@@H]1CCCN1CC(=O)c1cccc(Oc2ccccc2)c1)C(=O)NCc1ccccc1 [Example 104, L-Isoleucine, N-[1-(2-(3-Phenoxyphenyl)-2-Oxoethyl)-L-Prolyl] Benzylamide]",> 15
< 5,> 15,"CC[C@H](C)[C@H](NC(=O)[C@@H]1CCCN1CC(=O)c1ccccc1Oc1ccccc1)C(=O)NCc1ccccc1 [Example 105, L-Isoleucine, N-[1-(2-(2-Phenoxyphenyl)-2-Oxoethyl)-L-Prolyl] Benzylamide]",> 15
